Reference: US20250197393A1, “INTEGRIN INHIBITOR AND USES THEREOF” (Pliant Therapeutics, Inc., priority 2023, published 2025)

Assays:
Type in all cases: physicochemical
[1] = Water activity experiments in MeOH/water (relative stability of hydrate Pattern A and hydrate Pattern B); conditions: for water activity (a.w.) at which the pattern was obtained: methanol/water
Description: The relative stability of the hydrate Pattern A and the hydrate Pattern B was investigated using water activity experiments in MeOH/water systems. About 5 mg of (S)-4-((2-methoxyethyl)(4-(5,6,7,8-tetrahydro-1,8-naphthyridin-2-yl)butyl)amino)-2-(quinazolin-4-ylamino)butanoic acid L-tartaric acid cocrystal Pattern A and 5 mg of (S)-4-((2-methoxyethyl)(4-(5,6,7,8-tetrahydro-1,8-naphthyridin-2-yl)butyl)amino)-2-(quinazolin-4-ylamino)butanoic acid L-tartaric acid cocrystal Pattern B were added to 0.1-0.5 mL saturated solutions of the methanol/water system. Obtained suspensions were stirred at 5° C., 25° C. and 50° C. for up to 21 days, respectively. Solid parts (wet cakes) were isolated by centrifugation filtration and investigated by XRPD.

[2] = Bulk stability of solid under temperature/humidity stress (HPLC, appearance, XRPD); conditions: 40° C./75% RH in an open container, 4 weeks; listed as L-tartaric acid cocrystal Pattern A
[3] = VT-XRPD heating experiment; conditions: heated to 110° C. under dry nitrogen flow for about 30 min, then cooled to ambient (20-26° C., 20%-35% RH)
Description: The dried(S)-4-((2-methoxyethyl)(4-(5,6,7,8-tetrahydro-1,8-naphthyridin-2-yl)butyl)amino)-2-(quinazolin-4-ylamino)butanoic acid L-tartaric acid cocrystal Pattern A was also investigated by VT-XRPD experiments. The(S)-4-((2-methoxyethyl)(4-(5,6,7,8-tetrahydro-1,8-naphthyridin-2-yl)butyl)amino)-2-(quinazolin-4-ylamino)butanoic acid L-tartaric acid cocrystal Pattern A was heated to 110° C. under dry nitrogen flow for about 30 min and then cooled to ambient condition (20-26° C., 20%-35% RH). The obtained solid parts were investigated by XRPD.

[4] = Wet granulation simulation
Description: Water or ethanol was added dropwise to about 20 mg of (S)-4-((2-methoxyethyl)(4-(5,6,7,8-tetrahydro-1,8-naphthyridin-2-yl)butyl)amino)-2-(quinazolin-4-ylamino)butanoic acid L-tartaric acid cocrystal Pattern A until the sample was wetted sufficiently. The wet sample was ground gently using a mortar and pestle. Post granulation sample was dried under ambient conditions for 30 min. The potential form change and degree of crystallinity were evaluated by XRPD.

thermodynamic stability based on water activity experiments ([1]; 0, 0.2, 0.4, 0.6, 0.8 and 1.0 water activity): thermodynamically stable | water activity (a.w.) at which the pattern was obtained ([1]; 5° C.): ≤ 0.8 | water activity (a.w.) at which the pattern was obtained ([1]; 25° C.): ≤ 0.8 | water activity (a.w.) at which the pattern was obtained ([1]; 50° C.): ≤ 1.0 | purity decrease [2]: 2.1% | XRPD after heating (VT-XRPD) [3]: no form change | XRPD after wet granulation ([4]; Granulation solvent Ethanol): Pattern A | Comments (crystallinity after wet granulation) ([4]; Granulation solvent Water): Slight decrease in crystallinity | XRPD after wet granulation ([4]; Granulation solvent Water): Pattern A
Structure (SMILES): COCCN(CCCCc1ccc2c(n1)NCCC2)CC[C@H](Nc1ncnc2ccccc12)C(=O)O [Pattern A, (S)-4-((2-methoxyethyl)(4-(5,6,7,8-tetrahydro-1,8-naphthyridin-2-yl)butyl)amino)-2-(quinazolin-4-ylamino)butanoic acid]
